Experimental data as given in PubChem BioAssay (NCI).
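48-hour exposure; five concentrations; linearly interpolated endpoints. TGI marks complete inhibition of growth.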

Columns and labels:
Experiment in all cases: DTP human tumour cell line panel, 48 h
786-0 renal = test system: 786-0 renal
A498 renal = test system: A498 renal
A549 NSCLC = test system: A549 NSCLC
ACHN renal = test system: ACHN renal
BT-549 breast = test system: BT-549 breast
CAKI-1 renal = test system: CAKI-1 renal
CCRF-CEM leukemia = test system: CCRF-CEM leukemia
COLO 205 colon = test system: COLO 205 colon
DU-145 prostate = test system: DU-145 prostate
EKVX NSCLC = test system: EKVX NSCLC
HCC-2998 colon = test system: HCC-2998 colon
HCT-116 colon = test system: HCT-116 colon
HCT-15 colon = test system: HCT-15 colon
HOP-62 NSCLC = test system: HOP-62 NSCLC
HS 578T breast = test system: HS 578T breast
HT29 colon = test system: HT29 colon
IGROV1 ovarian = test system: IGROV1 ovarian
K-562 leukemia = test system: K-562 leukemia
KM12 colon = test system: KM12 colon
LOX IMVI melanoma = test system: LOX IMVI melanoma
M14 melanoma = test system: M14 melanoma
MALME-3M melanoma = test system: MALME-3M melanoma
MCF7 breast = test system: MCF7 breast
MDA-MB-231 breast = test system: MDA-MB-231 breast
MDA-MB-435 = test system: MDA-MB-435
MDA-N = test system: MDA-N
MOLT-4 leukemia = test system: MOLT-4 leukemia
NCI-H226 lung = test system: NCI-H226 lung
NCI-H23 lung = test system: NCI-H23 lung
NCI-H460 lung = test system: NCI-H460 lung
NCI-H522 lung = test system: NCI-H522 lung
NCI/ADR-RES ovarian = test system: NCI/ADR-RES ovarian
OVCAR-3 ovarian = test system: OVCAR-3 ovarian
OVCAR-4 ovarian = test system: OVCAR-4 ovarian
OVCAR-5 ovarian = test system: OVCAR-5 ovarian
OVCAR-8 ovarian = test system: OVCAR-8 ovarian
PC-3 prostate = test system: PC-3 prostate
RXF 393 renal = test system: RXF 393 renal
SF-268 CNS = test system: SF-268 CNS
SF-295 CNS = test system: SF-295 CNS
SF-539 CNS = test system: SF-539 CNS
SK-MEL-2 melanoma = test system: SK-MEL-2 melanoma
SK-MEL-28 melanoma = test system: SK-MEL-28 melanoma
SK-MEL-5 melanoma = test system: SK-MEL-5 melanoma
SK-OV-3 ovarian = test system: SK-OV-3 ovarian
SN12C renal = test system: SN12C renal
SNB-19 CNS = test system: SNB-19 CNS
SR leukemia = test system: SR leukemia
SW-620 colon = test system: SW-620 colon
T-47D breast = test system: T-47D breast
TK-10 renal = test system: TK-10 renal
U251 CNS = test system: U251 CNS
UACC-257 melanoma = test system: UACC-257 melanoma
UACC-62 melanoma = test system: UACC-62 melanoma
UO-31 renal = test system: UO-31 renal
HL-60(TB) leukemia = test system: HL-60(TB) leukemia
HOP-92 NSCLC = test system: HOP-92 NSCLC
RPMI-8226 leukemia = test system: RPMI-8226 leukemia
SNB-75 CNS = test system: SNB-75 CNS

## CCCSc1cc(Cl)c(C)cc1S(=O)(=O)n1ccnc1OCCCN(C)C
786-0 renal
  TGI: > 100 µM
A498 renal
  TGI: > 100 µM
A549 NSCLC
  TGI: > 100 µM
ACHN renal
  TGI: > 100 µM
BT-549 breast
  TGI: > 100 µM
CAKI-1 renal
  TGI: > 100 µM
CCRF-CEM leukemia
  TGI: > 100 µM
COLO 205 colon
  TGI: > 100 µM
DU-145 prostate
  TGI: > 100 µM
EKVX NSCLC
  TGI: > 100 µM
HCC-2998 colon
  TGI: > 100 µM
HCT-116 colon
  TGI: > 100 µM
HCT-15 colon
  TGI: > 100 µM
HOP-62 NSCLC
  TGI: > 100 µM
HS 578T breast
  TGI: > 100 µM
HT29 colon
  TGI: > 100 µM
IGROV1 ovarian
  TGI: > 100 µM
K-562 leukemia
  TGI: > 100 µM
KM12 colon
  TGI: > 100 µM
LOX IMVI melanoma
  TGI: > 100 µM
M14 melanoma
  TGI: > 100 µM
MALME-3M melanoma
  TGI: > 100 µM
MCF7 breast
  TGI: > 100 µM
MDA-MB-231 breast
  TGI: > 100 µM
MDA-MB-435
  TGI: > 100 µM
MDA-N
  TGI: > 100 µM
MOLT-4 leukemia
  TGI: > 100 µM
NCI-H226 lung
  TGI: > 100 µM
NCI-H23 lung
  TGI: > 100 µM
NCI-H460 lung
  TGI: > 100 µM
NCI-H522 lung
  TGI: > 100 µM
NCI/ADR-RES ovarian
  TGI: > 100 µM
OVCAR-3 ovarian
  TGI: > 100 µM
OVCAR-4 ovarian
  TGI: > 100 µM
OVCAR-5 ovarian
  TGI: > 100 µM
OVCAR-8 ovarian
  TGI: > 100 µM
PC-3 prostate
  TGI: > 100 µM
RXF 393 renal
  TGI: > 100 µM
SF-268 CNS
  TGI: > 100 µM
SF-295 CNS
  TGI: > 100 µM
SF-539 CNS
  TGI: > 100 µM
SK-MEL-2 melanoma
  TGI: > 100 µM
SK-MEL-28 melanoma
  TGI: > 100 µM
SK-MEL-5 melanoma
  TGI: > 100 µM
SK-OV-3 ovarian
  TGI: > 100 µM
SN12C renal
  TGI: > 100 µM
SNB-19 CNS
  TGI: > 100 µM
SR leukemia
  TGI: > 100 µM
SW-620 colon
  TGI: > 100 µM
T-47D breast
  TGI: > 100 µM
TK-10 renal
  TGI: > 100 µM
U251 CNS
  TGI: > 100 µM
UACC-257 melanoma
  TGI: > 100 µM
UACC-62 melanoma
  TGI: > 100 µM
UO-31 renal
  TGI: > 100 µM

## COc1cc(C2c3cc4c(cc3C(O)C3CCC(=O)N23)OCO4)cc(OC)c1OC (stereo unspecified)
786-0 renal
  TGI: > 100 µM
A498 renal
  TGI: > 100 µM
A549 NSCLC
  TGI: > 100 µM
ACHN renal
  TGI: > 100 µM
BT-549 breast
  TGI: 66.1 µM
CAKI-1 renal
  TGI: > 100 µM
CCRF-CEM leukemia
  TGI: > 100 µM
COLO 205 colon
  TGI: > 100 µM
DU-145 prostate
  TGI: > 100 µM
EKVX NSCLC
  TGI: > 100 µM
HCC-2998 colon
  TGI: > 100 µM
HCT-116 colon
  TGI: > 100 µM
HCT-15 colon
  TGI: > 100 µM
HL-60(TB) leukemia
  TGI: 55.1 µM
HOP-62 NSCLC
  TGI: > 100 µM
HOP-92 NSCLC
  TGI: > 100 µM
HS 578T breast
  TGI: > 100 µM
HT29 colon
  TGI: 76.7 µM
IGROV1 ovarian
  TGI: > 100 µM
K-562 leukemia
  TGI: > 100 µM
KM12 colon
  TGI: > 100 µM
LOX IMVI melanoma
  TGI: > 100 µM
M14 melanoma
  TGI: > 100 µM
MALME-3M melanoma
  TGI: > 100 µM
MCF7 breast
  TGI: 81 µM
MDA-MB-231 breast
  TGI: > 100 µM
MDA-MB-435
  TGI: 18 µM
MDA-N
  TGI: 38.2 µM
MOLT-4 leukemia
  TGI: > 100 µM
NCI-H226 lung
  TGI: 79.3 µM
NCI-H23 lung
  TGI: > 100 µM
NCI-H460 lung
  TGI: > 100 µM
NCI-H522 lung
  TGI: 89.9 µM
NCI/ADR-RES ovarian
  TGI: > 100 µM
OVCAR-3 ovarian
  TGI: > 100 µM
OVCAR-5 ovarian
  TGI: > 100 µM
OVCAR-8 ovarian
  TGI: > 100 µM
PC-3 prostate
  TGI: > 100 µM
RPMI-8226 leukemia
  TGI: > 100 µM
SF-268 CNS
  TGI: > 100 µM
SF-295 CNS
  TGI: 32.6 µM
SK-MEL-2 melanoma
  TGI: > 100 µM
SK-MEL-28 melanoma
  TGI: > 100 µM
SK-MEL-5 melanoma
  TGI: > 100 µM
SK-OV-3 ovarian
  TGI: > 100 µM
SN12C renal
  TGI: > 100 µM
SNB-19 CNS
  TGI: > 100 µM
SNB-75 CNS
  TGI: > 100 µM
SR leukemia
  TGI: > 100 µM
SW-620 colon
  TGI: > 100 µM
T-47D breast
  TGI: > 100 µM
TK-10 renal
  TGI: > 100 µM
U251 CNS
  TGI: 82.8 µM
UACC-257 melanoma
  TGI: > 100 µM
UACC-62 melanoma
  TGI: > 100 µM
UO-31 renal
  TGI: 71.2 µM

## CCCCC/C=C1/CC(CO)(COC(=O)CC(C(C)C)C(C)C)OC1=O (stereo unspecified)
786-0 renal
  TGI: 22.3 µM
A498 renal
  TGI: 26.5 µM
A549 NSCLC
  TGI: 27.1 µM
ACHN renal
  TGI: 24.7 µM
BT-549 breast
  TGI: 28.5 µM
CAKI-1 renal
  TGI: 23.1 µM
CCRF-CEM leukemia
  TGI: > 100 µM
COLO 205 colon
  TGI: 14.7 µM
DU-145 prostate
  TGI: 27.8 µM
EKVX NSCLC
  TGI: 31.5 µM
HCC-2998 colon
  TGI: 35.2 µM
HCT-116 colon
  TGI: 28 µM
HCT-15 colon
  TGI: 33.6 µM
HOP-62 NSCLC
  TGI: 20.7 µM
HOP-92 NSCLC
  TGI: 21.5 µM
HS 578T breast
  TGI: 9.09 µM
HT29 colon
  TGI: 34.9 µM
IGROV1 ovarian
  TGI: 31.7 µM
K-562 leukemia
  TGI: 66.3 µM
KM12 colon
  TGI: 30.5 µM
M14 melanoma
  TGI: 27.1 µM
MALME-3M melanoma
  TGI: 18.2 µM
MCF7 breast
  TGI: 31.8 µM
MDA-MB-231 breast
  TGI: 32.5 µM
MDA-MB-435
  TGI: 19 µM
MDA-N
  TGI: 17 µM
MOLT-4 leukemia
  TGI: 26.2 µM
NCI-H226 lung
  TGI: 24.9 µM
NCI-H23 lung
  TGI: 31.7 µM
NCI-H460 lung
  TGI: > 100 µM
NCI-H522 lung
  TGI: 29.9 µM
NCI/ADR-RES ovarian
  TGI: 38.9 µM
OVCAR-3 ovarian
  TGI: 32.7 µM
OVCAR-4 ovarian
  TGI: 41.8 µM
OVCAR-5 ovarian
  TGI: 29.7 µM
OVCAR-8 ovarian
  TGI: 31 µM
PC-3 prostate
  TGI: 24.6 µM
RXF 393 renal
  TGI: 29.8 µM
SF-268 CNS
  TGI: 30.3 µM
SF-295 CNS
  TGI: 19.5 µM
SK-MEL-2 melanoma
  TGI: 42.9 µM
SK-MEL-28 melanoma
  TGI: 26.7 µM
SK-MEL-5 melanoma
  TGI: 21.5 µM
SK-OV-3 ovarian
  TGI: 40.4 µM
SN12C renal
  TGI: 26 µM
SNB-19 CNS
  TGI: 21.2 µM
SNB-75 CNS
  TGI: 22.6 µM
SR leukemia
  TGI: 42.8 µM
SW-620 colon
  TGI: 50.8 µM
T-47D breast
  TGI: 40.5 µM
TK-10 renal
  TGI: 32.5 µM
U251 CNS
  TGI: 27.6 µM
UACC-257 melanoma
  TGI: 47.4 µM
UACC-62 melanoma
  TGI: 29.6 µM
UO-31 renal
  TGI: 24.1 µM
